Results taken from ChEMBL document CHEMBL1151412, “Constituents of Couepia paraensis” (1983).
Values after ≈ are worked out from the molar mass of the structure shown.

Tested on: KB
Assay: Cytotoxicity against human KB cells
Format: functional
Conditions: read-out: ED50 (the source's name)

Q: For `COc1c(OC)c(O)c2c(=O)cc(C)oc2c1C`, which EC50 is on record?
A: 60 µg/mL (≈ 240 µM)
